According to patent publication US7704995B2 (Exelixis, Inc., priority 2003, dated 2010):

Molecular target: T1, Chk1 (Homo sapiens, UniProt O14757)
T1 construct: purchased Upstate Biotechnology
T1 sequence (O14757 1-476): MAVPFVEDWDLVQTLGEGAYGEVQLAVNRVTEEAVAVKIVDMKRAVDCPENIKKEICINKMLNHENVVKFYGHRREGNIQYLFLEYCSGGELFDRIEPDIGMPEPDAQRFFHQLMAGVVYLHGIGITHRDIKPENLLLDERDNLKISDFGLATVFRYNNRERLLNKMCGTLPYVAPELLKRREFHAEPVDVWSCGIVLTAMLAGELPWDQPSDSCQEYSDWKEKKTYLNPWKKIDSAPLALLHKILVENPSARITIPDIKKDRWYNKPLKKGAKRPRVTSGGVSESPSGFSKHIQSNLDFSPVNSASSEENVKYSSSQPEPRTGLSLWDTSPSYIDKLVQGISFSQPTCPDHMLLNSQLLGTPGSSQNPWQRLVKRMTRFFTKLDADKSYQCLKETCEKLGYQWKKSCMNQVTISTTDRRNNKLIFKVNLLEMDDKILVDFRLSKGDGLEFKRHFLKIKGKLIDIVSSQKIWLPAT
Assay: Chk1 kinase assay: incorporation of γ-33P ATP into immobilized myelin basic protein
Type: biochemical
Settings: Table 11, Chk1 only; class symbols A-D; read-out: Chk1 IC50
Procedure, shortened: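 MBP coated on plates (20 μg/ml) was phosphorylated by Chk1 (10 nM) or Chk2 (20 nM) with γ-33P ATP plus 10 μM (Chk1) or 30 μM (Chk2) unlabeled ATP, 1 h at room temperature, 1% DMSO. Bound radioactivity was counted by scintillation after washing; IC50 or Ki derived from fitted rate data.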

| Compound | IC50 |
| --- | --- |
| Nc1ncc(-c2cccc(CNC(=O)c3ccc(OC(F)(F)F)cc3)c2)nc1C(=O)N[C@H]1CCCNC1 [Example 883, 3-amino-N-[(3S)-piperidin-3-yl]-6-(3-{[({4-[(trifluoromethyl)oxy]phenyl}carbonyl)amino]methyl}phenyl)pyrazine-2-carboxamide] | < 50 nM |
| Nc1ncc(-c2cccc(CNC(=O)c3ccc(Cl)cc3)c2)nc1C(=O)N[C@H]1CCCNC1 [Example 884, 3-amino-6-[3-({[(4-chlorophenyl)carbonyl]amino}methyl)phenyl]-N-[(3S)-piperidin-3-yl]pyrazine-2-carboxamide] | < 50 nM |
| Nc1ncc(-c2cccc(NC(=O)Cc3ccc(Cl)cc3)c2)nc1C(=O)N[C@H]1CCCNC1 [Example 885, 3-amino-6-(3-{[(4-chlorophenyl)acetyl]amino}phenyl)-N-[(3S)-piperidin-3-yl]pyrazine-2-carboxamide] | < 50 nM |
| Nc1ncc(-c2cccc(NC(=O)Cc3c(Cl)cccc3Cl)c2)nc1C(=O)N[C@H]1CCCNC1 [Example 886, 3-amino-6-(3-{[(2,6-dichlorophenyl)acetyl]amino}phenyl)-N-[(3S)-piperidin-3-yl]pyrazine-2-carboxamide] | < 50 nM |
| Nc1ncc(-c2cccc(NC(=O)Cc3c(F)c(F)c(F)c(F)c3F)c2)nc1C(=O)N[C@H]1CCCNC1 [Example 887, 3-amino-6-(3-{[(pentafluorophenyl)acetyl]amino}phenyl)-N-[(3S)-piperidin-3-yl]pyrazine-2-carboxamide] | < 50 nM |
| Nc1ncc(-c2cccc(NC(=O)Cc3ccc(F)cc3Cl)c2)nc1C(=O)N[C@H]1CCCNC1 [Example 888, 3-amino-6-(3-{[(2-chloro-4-fluorophenyl)acetyl]amino}phenyl)-N-[(3S)-piperidin-3-yl]pyrazine-2-carboxamide] | < 50 nM |
| CSc1ccc(CC(=O)Nc2cccc(-c3cnc(N)c(C(=O)N[C@H]4CCCNC4)n3)c2)cc1 [Example 889, 3-amino-6-[3-({[4-(methylthio)phenyl]acetyl}amino)phenyl]-N-[(3S)-piperidin-3-yl]pyrazine-2-carboxamide] | < 50 nM |
| Nc1ncc(-c2cccc(NC(=O)Cc3ccc(Cl)cc3Cl)c2)nc1C(=O)N[C@H]1CCCNC1 [Example 890, 3-amino-6-(3-{[(2,4-dichlorophenyl)acetyl]amino}phenyl)-N-[(3S)-piperidin-3-yl]pyrazine-2-carboxamide] | < 50 nM |
| Nc1ncc(-c2cccc(NC(=O)c3cc(-c4ccc(Cl)cc4)cs3)c2)nc1C(=O)N[C@H]1CCCNC1 [Example 891, 3-amino-6-[3-({[4-(4-chlorophenyl)-2-thienyl]carbonyl}amino)phenyl]-N-[(3S)-piperidin-3-yl]pyrazine-2-carboxamide] | < 50 nM |
| Nc1ncc(-c2cccc(CNC(=O)c3ccc(Br)cc3)c2)nc1C(=O)N[C@H]1CCCNC1 [Example 892, 3-amino-6-[3-({[(4-bromophenyl)carbonyl]amino}methyl)phenyl]-N-[(3S)-piperidin-3-yl]pyrazine-2-carboxamide] | < 50 nM |
| Nc1ncc(-c2cccc(CNC(=O)c3ccc4ccccc4c3)c2)nc1C(=O)N[C@H]1CCCNC1 [Example 893, 3-amino-6-(3-{[(naphthalen-2-ylcarbonyl)amino]methyl}phenyl)-N-[(3S)-piperidin-3-yl]pyrazine-2-carboxamide] | < 50 nM |
| Nc1ncc(-c2cccc(OCCN3CCN(c4ccccc4)CC3)c2)nc1C(=O)N[C@H]1CCCNC1 [Example 894, 3-amino-6-(3-{[2-(4-phenylpiperazin-1-yl)ethyl]oxy}phenyl)-N-[(3S)-piperidin-3-yl]pyrazine-2-carboxamide] | < 50 nM |
| Nc1ncc(-c2cccc(CNC(=O)Nc3ccc(Br)cc3)c2)nc1C(=O)N[C@H]1CCCNC1 [Example 895] | < 50 nM |
| Nc1ncc(-c2cccc(CNC(=O)Nc3ccc4ccccc4c3)c2)nc1C(=O)N[C@H]1CCCNC1 [Example 896] | < 50 nM |
| Nc1ncc(-c2cccc(NC(=O)Cc3ccc(F)cc3F)c2)nc1C(=O)N[C@H]1CCCNC1 [Example 897, 3-amino-6-(3-{[(2,4-difluorophenyl)acetyl]amino}phenyl)-N-[(3S)-piperidin-3-yl]pyrazine-2-carboxamide] | < 50 nM |
| Nc1ncc(-c2cccc(NC(=O)Cc3ccccc3F)c2)nc1C(=O)N[C@H]1CCCNC1 [Example 898, 3-amino-6-(3-{[(2-fluorophenyl)acetyl]amino}phenyl)-N-[(3S)-piperidin-3-yl]pyrazine-2-carboxamide] | < 50 nM |
| Nc1ncc(-c2cccc(NC(=O)c3ccc(-c4cc(C(F)(F)F)ccc4Cl)o3)c2)nc1C(=O)N[C@H]1CCCNC1 [Example 899, 3-amino-6-{3-[({5-[2-chloro-5-(trifluoromethyl)phenyl]furan-2-yl}carbonyl)amino]phenyl}-N-[(3S)-piperidin-3-yl]pyrazine-2-carboxamide] | < 50 nM |
| CN(C)c1ccc(C(=O)Nc2cccc(-c3cnc(N)c(C(=O)N[C@H]4CCCNC4)n3)c2)c2ccccc12 [Example 900, 3-amino-6-[3-({[4-(dimethylamino)naphthalen-1-yl]carbonyl}amino)phenyl]-N-[(3S)-piperidin-3-yl]pyrazine-2-carboxamide] | < 50 nM |
| Nc1ncc(-c2cccc(NC(=O)c3ccc(-c4cnns4)cc3)c2)nc1C(=O)N[C@H]1CCCNC1 [Example 901, 3-amino-N-[(3S)-piperidin-3-yl]-6-[3-({[4-(1,2,3-thiadiazol-5-yl)phenyl]carbonyl}amino)phenyl]pyrazine-2-carboxamide] | < 50 nM |
| Cc1cc(C(=O)Nc2cccc(-c3cnc(N)c(C(=O)N[C@H]4CCCNC4)n3)c2)n(C)n1 [Example 902, 3-amino-6-(3-{[(1,3-dimethyl-1H-pyrazol-5-yl)carbonyl]amino}phenyl)-N-[(3S)-piperidin-3-yl]pyrazine-2-carboxamide] | < 50 nM |
| CN(C)c1ccc(C(=O)NCc2cccc(-c3cnc(N)c(C(=O)N[C@H]4CCCNC4)n3)c2)cc1 [Example 903, 3-amino-6-{3-[({[4-(dimethylamino)phenyl]carbonyl}amino)methyl]phenyl}-N-[(3S)-piperidin-3-yl]pyrazine-2-carboxamide] | < 50 nM |
| Nc1ncc(-c2cccc(OCCO)c2)nc1C(=O)N[C@H]1CCCNC1 [Example 904, 3-amino-6-{3-[(2-hydroxyethyl)oxy]phenyl}-N-[(3S)-piperidin-3-yl]pyrazine-2-carboxamide] | < 50 nM |
| Nc1ncc(-c2cccc(CNS(=O)(=O)c3ccc4c(c3)CCO4)c2)nc1C(=O)N[C@H]1CCCNC1 [Example 905, 3-amino-6-(3-{[(2,3-dihydro-1-benzofuran-5-ylsulfonyl)amino]methyl}phenyl)-N-[(3S)-piperidin-3-yl]pyrazine-2-carboxamide] | < 50 nM |
| Nc1ncc(-c2cccc(CNS(=O)(=O)c3ccc4c(c3)OCCCO4)c2)nc1C(=O)N[C@H]1CCCNC1 [Example 906, 3-amino-6-(3-{[(3,4-dihydro-2H-1,5-benzodioxepin-7-ylsulfonyl)amino]methyl}phenyl)-N-[(3S)-piperidin-3-yl]pyrazine-2-carboxamide] | < 50 nM |
| Nc1ncc(-c2cccc(CNS(=O)(=O)c3ccc4cccnc4c3)c2)nc1C(=O)N[C@H]1CCCNC1 [Example 907, 3-amino-N-[(3S)-piperidin-3-yl]-6-(3-{[(quinolin-7-ylsulfonyl)amino]methyl}phenyl)pyrazine-2-carboxamide] | 50 to 1000 nM |
